Test results as given in patent US9616107B2, “Therapy for kidney disease and/or heart failure” (priority 2011, dated 2017).
Like-named read-outs stand apart in the source and are kept apart here. Ends that are not written are not given here.

Test: Toxicology study of VD in rats: 5-day continuous subcutaneous infusion by Alzet minipumps, plasma VD by radioimmunoassay, clinical observations
Type: in vivo
Details: for maximum tolerated dose for prolonged subcutaneous administration: expected; for Cmin: SC infusion 5 days
Experimental: VD was administered to a rat model via a subcutaneous delivery route to assess the toxicity of VD and to determine if a lethal dosing amount of the VD can be reached by subcutaneous administration. As noted above, a maximum tolerated or lethal dosing amount was not observed for canines.
VD-acetate (Bachem lot 2502022) was prepared in the Tris/Glycerin/m-cresol buffer at a concentration of 3 mg/mL or 15 mg/mL. The VD solution was administered continuously by subcutaneous infusion using Alzet® (Durect Corp.) osmotic minipumps (model 2002) over a period of 5 days to 3 study groups, where each study group (Groups 1-3) contained 3 male and 3 female Sprague Dawley rats.
The continuous subcutaneous delivery dose for Group 1 was calibrated to yield an administration of approximately 100 ng/(kg·min) of VD, which is in the range of a dosing regimen useful for clinical use in humans. […] However, an estimated body weight of 250 g was used for all animals (males and females) for reporting pharmacokinetic and toxicological calculations; therefore, the estimated daily dose is reported as 0.144 mg/kg·day (or 100 ng/(kg·min)) for all animals in Group 1, and the total dose delivered to each animal over the 5-day period was 0.180 mg.
The continuous subcutaneous delivery dose for Group 2 was calibrated to yield an administration of approximately 1000 ng/(kg·min) of VD, which is 10-fold higher than for Group 1. Each rat in Group 2 each had two Alzet pumps implanted to have a combined infusion rate was 1.0 μL/hr of the 15 mg/mL VD solution. The resulting actual mean weight-based doses were 1.026 and 1.629 mg/(kg·day) for males and females, respectively. For the pharmacokinetic calculations, an estimated body weight of 280 g was used for all animals (males and females); therefore, the estimated daily dose was reported as 1.29 mg/(kg·day) (or ˜896 ng/(kg·min)) for all animals in Group 2, and the total dose delivered to each animal over the 5 day period was 1.8 mg.
The continuous subcutaneous delivery dose for Group 3 was calibrated to yield an administration of approximately 2000 ng/(kg·min). Each rat each had four Alzet pumps implanted for a combined infusion rate was 2.0 μL/hr of the 15 mg/mL VD solution. The resulting actual mean weight-based doses were 1.870 and 3.303 mg/(kg·day) for males and females, respectively. For pharmacokinetic calculations, an estimated body weight of 300 g was used for all animals (males and females); therefore the estimated daily dose was reported as 2.4 mg/(kg·day) (or (or ˜1667 ng/(kg·min)) for all animals in Group 3, and the total dose delivered to each animal for the 5 day period was 3.6 mg. The dosing for Groups 1-3 is summarized in Table 5.
All animals in Groups 1-3 were observed twice daily for mortality and moribund appearance during the 5-day dosing period and during an at least 16-day pretest period. Clinical examinations were performed daily for all animals following surgery to implant the Alzet pumps. Detailed physical examinations were conducted on all animals approximately weekly during a pretest period of at least 16 days, prior to beginning dosing (Day 0), and on Day 5 prior to euthanasia. Individual body weights were recorded at least weekly during the pretest period, on Day 0 prior to dosing, and on Day 5 prior to euthanasia. Individual food consumption was recorded approximately weekly during the pretest period, on Day 0 prior to dosing, and on Day 5 prior to euthanasia. Blood samples for determination of plasma drug concentration were collected from all animals at approximately 4, 8, and 24 hours after pump implantation on Day 0 and immediately prior to euthanasia on Day 5 (120 hours after the start of dosing). Blood was collected via the retro-orbital sinus from animals anesthetized with isoflurane into chilled tubes containing K3-EDTA. Following the final blood collection, the animals were euthanized and discarded. […]

[1] = female, Sprague Dawley, rat, in vivo, sc, 0.18 mg
[2] = female, Sprague Dawley, rat, in vivo, sc, 1.8 mg
[3] = female, Sprague Dawley, rat, in vivo, sc, 3.6 mg

For “EVVPPQVLSEPNEEAGAALSPLPEVPPWTGEVSPAQR [VD, Vessel Dilator]”, the level at 8 h (Sprague Dawley, rat, in vivo, sc, 0.18 mg total dose, male rats N=3, 0.180 mg, 8 hours post-dosing, read-out: Mean concentration of vessel dilator in plasma) was 11.9 ng/mL, the level at 4 h (Sprague Dawley, rat, in vivo, sc, 0.18 mg, male rats N=3, 0.180 mg, 4 hours post-dosing (from start of infusion), read-out: Mean concentration of vessel dilator in plasma) was 17.1 ng/mL and the level at 24 h (Sprague Dawley, rat, in vivo, sc, 0.18 mg, male rats N=3, 0.180 mg, 24 hours post-dosing, read-out: Mean concentration of vessel dilator in plasma) was 13.3 ng/mL. The level at 120 h (Sprague Dawley, rat, in vivo, sc, 0.18 mg, male rats N=3, 0.180 mg, 120 hours post-dosing, all samples, read-out: Mean concentration of vessel dilator in plasma) was 78.6 ng/mL, the level at 8 h (Sprague Dawley, rat, in vivo, sc, 1.8 mg total dose, male rats N=3, 1.80 mg, 8 hours post-dosing, read-out: Mean concentration of vessel dilator in plasma) was 204 ng/mL and the level at 4 h (Sprague Dawley, rat, in vivo, sc, 1.8 mg, male rats N=3, 1.80 mg, 4 hours post-dosing, read-out: Mean concentration of vessel dilator in plasma) was 62.3 ng/mL. For the same sequence, the level at 24 h (Sprague Dawley, rat, in vivo, sc, 1.8 mg, male rats N=3, 1.80 mg, 24 hours post-dosing, read-out: Mean concentration of vessel dilator in plasma) was 167 ng/mL, the level at 120 h (Sprague Dawley, rat, in vivo, sc, 1.8 mg, male rats N=3, 1.80 mg, 120 hours post-dosing, read-out: Mean concentration of vessel dilator in plasma) was 214 ng/mL and the level at 4 h (Sprague Dawley, rat, in vivo, sc, 3.6 mg, male rats N=3, 3.60 mg, 4 hours post-dosing, read-out: Mean concentration of vessel dilator in plasma) was 370 ng/mL. For the same sequence, the level at 8 h (Sprague Dawley, rat, in vivo, sc, 3.6 mg, male rats N=3, 3.60 mg, 8 hours post-dosing, read-out: Mean concentration of vessel dilator in plasma) was 255 ng/mL, the level at 24 h (Sprague Dawley, rat, in vivo, sc, 3.6 mg, male rats N=3, 3.60 mg, 24 hours post-dosing, read-out: Mean concentration of vessel dilator in plasma) was 168 ng/mL and the level at 120 h (Sprague Dawley, rat, in vivo, sc, 3.6 mg, male rats N=3, 3.60 mg, 120 hours post-dosing, read-out: Mean concentration of vessel dilator in plasma) was 261 ng/mL. For the same sequence, the “maximum tolerated dose for prolonged subcutaneous administration” value (female rats) was > 2300 ng/kg·min, the level at 4 h [1] was 27.5 ng/mL and the level at 8 h [1] was 31.6 ng/mL. The level at 24 h [1] was 33.2 ng/mL, the level at 120 h [1] was 27.1 ng/mL and the level at 4 h [2] was 135 ng/mL. The level at 8 h [2] was 275 ng/mL, the level at 24 h [2] was 320 ng/mL and the level at 120 h [2] was 265 ng/mL. It also gave a level at 4 h [3] of 725 ng/mL, a level at 8 h [3] of 454 ng/mL and a level at 24 h [3] of 427 ng/mL. It also gave a level at 120 h [3] of 567 ng/mL, a Cmin (male rats, 1.80 mg total dose) of 62.3 ng/mL and a Cmin (male rats, 3.60 mg total dose) of 167 ng/mL. The “maximum tolerated dose for prolonged subcutaneous administration” value (male rats) was “above 1300 ng/kg·min”, the Tmax (male, Sprague Dawley, rat, in vivo, sc, Tmax) was 81.3 h and the “clinical signs of toxicity” value (rat, in vivo) was “None of the animals in Groups 1-3 showed clinical signs of toxicity”. For the same sequence, the “plasma concentration up to which no toxicity issues were shown” value (rat, in vivo, sc) was “approx. 740 ng/mL”, the “AUCτ of Group 3 females compared to Group 3 males” value (rats, 3.60 mg, similar when normalized to weight) was “up to 2 fold” and the “clinical observations, body weight gain, food consumption” value (rats, 5-day dosing period) was “no remarkable clinical observations, effects on body weight gain or effects on food consumption”. For the same sequence, the survival (rats, Groups 1-3) was “all animals survived until euthanasia”.
